Conditions: for mass density: Vibrating tube method; for vapor or sublimation pressure: Closed cell (Static) method

CCC [propane]
Fluid (supercritical or subcritical phases)
Conditions | mass density [kg/m3]
240 K, 527.3 kPa | 570.78
240 K, 1044.8 kPa | 571.46
240 K, 1522.4 kPa | 572.08
240 K, 1978.3 kPa | 572.68
240 K, 2477.9 kPa | 573.32
240 K, 2999.9 kPa | 573.98
240 K, 3513 kPa | 574.62
240 K, 4045.7 kPa | 575.29
240 K, 4504.5 kPa | 575.85
240 K, 4957.8 kPa | 576.41
240 K, 5475.7 kPa | 577.04
240 K, 6018.3 kPa | 577.69
240 K, 6523.2 kPa | 578.3
240 K, 7043.3 kPa | 578.91
250 K, 513.8 kPa | 558.73
250 K, 1008.1 kPa | 559.47
250 K, 1508.3 kPa | 560.2
250 K, 2008.3 kPa | 560.93
250 K, 2524.1 kPa | 561.67
250 K, 3016.9 kPa | 562.38
250 K, 3503.7 kPa | 563.05
250 K, 3993.1 kPa | 563.74
250 K, 4478.5 kPa | 564.4
250 K, 5045.1 kPa | 565.17
250 K, 5495.4 kPa | 565.78
250 K, 5999.9 kPa | 566.46
250 K, 6543.5 kPa | 567.17
250 K, 7010.3 kPa | 567.78
260 K, 506.6 kPa | 546.1
260 K, 1013.8 kPa | 546.96
260 K, 1503.5 kPa | 547.77
260 K, 1999.7 kPa | 548.6
260 K, 2504.5 kPa | 549.42
260 K, 3012.1 kPa | 550.24
260 K, 3513.3 kPa | 551.04
260 K, 4020 kPa | 551.84
260 K, 4498.9 kPa | 552.58
260 K, 5014.5 kPa | 553.38
260 K, 5513.9 kPa | 554.12
260 K, 6028.2 kPa | 554.89
260 K, 6522.8 kPa | 555.62
260 K, 7048.9 kPa | 556.4
270 K, 504.7 kPa | 532.93
270 K, 1012.9 kPa | 533.91
270 K, 1510.4 kPa | 534.87
270 K, 2005.4 kPa | 535.83
270 K, 2499.6 kPa | 536.75
270 K, 3017.5 kPa | 537.7
270 K, 3497.1 kPa | 538.57
270 K, 4018.8 kPa | 539.5
270 K, 4488.2 kPa | 540.32
270 K, 5023.8 kPa | 541.26
270 K, 5504.7 kPa | 542.05
270 K, 6021.1 kPa | 542.91
270 K, 6525.8 kPa | 543.74
270 K, 7024.1 kPa | 544.55
280 K, 1000 kPa | 520.1
280 K, 1466.1 kPa | 521.15
280 K, 1964.2 kPa | 522.28
280 K, 2513 kPa | 523.49
280 K, 3032.9 kPa | 524.61
280 K, 3519.3 kPa | 525.6
280 K, 4049.7 kPa | 526.68
280 K, 4527.5 kPa | 527.65
280 K, 4963.1 kPa | 528.5
280 K, 5443.4 kPa | 529.45
280 K, 5982.8 kPa | 530.51
280 K, 6522.6 kPa | 531.56
280 K, 7034.7 kPa | 532.51
290 K, 1499.4 kPa | 506.71
290 K, 2004.4 kPa | 508.04
290 K, 2510 kPa | 509.33
290 K, 2998.9 kPa | 510.56
290 K, 3484 kPa | 511.74
290 K, 4018.1 kPa | 513.03
290 K, 4476.9 kPa | 514.12
290 K, 5036.3 kPa | 515.41
290 K, 5531.4 kPa | 516.52
290 K, 5957.4 kPa | 517.46
290 K, 6525.4 kPa | 518.7
290 K, 7049.2 kPa | 519.81
300 K, 1517.7 kPa | 491.19
300 K, 2015.2 kPa | 492.77
300 K, 2519.2 kPa | 494.32
300 K, 3032.3 kPa | 495.86
300 K, 3486.3 kPa | 497.18
300 K, 4036.8 kPa | 498.73
300 K, 4462.1 kPa | 499.91
300 K, 4937 kPa | 501.23
300 K, 5518.9 kPa | 502.75
300 K, 6063.5 kPa | 504.2
300 K, 6496.7 kPa | 505.29
300 K, 7004.4 kPa | 506.54
310 K, 1514.4 kPa | 473.96
310 K, 2018.8 kPa | 475.98
310 K, 2491.2 kPa | 477.78
310 K, 3012.9 kPa | 479.7
310 K, 3515 kPa | 481.48
310 K, 4040.6 kPa | 483.29
310 K, 4528.9 kPa | 484.91
310 K, 5029.4 kPa | 486.52
310 K, 5529.3 kPa | 488.08
310 K, 6046.3 kPa | 489.64
310 K, 6510.1 kPa | 491.02
310 K, 6991.8 kPa | 492.41
320 K, 2011.4 kPa | 457.17
320 K, 2513.8 kPa | 459.66
320 K, 3002.1 kPa | 461.96
320 K, 3495.1 kPa | 464.17
320 K, 4025.8 kPa | 466.44
320 K, 4519.6 kPa | 468.46
320 K, 5017.9 kPa | 470.44
320 K, 5536.8 kPa | 472.4
320 K, 6024.8 kPa | 474.19
320 K, 6523.4 kPa | 475.95
320 K, 7008.9 kPa | 477.63
330 K, 2033.9 kPa | 435.23
330 K, 2537.4 kPa | 438.74
330 K, 3032 kPa | 441.91
330 K, 3546.3 kPa | 445
330 K, 3909.1 kPa | 447.05
330 K, 3995.4 kPa | 447.53
330 K, 4495.8 kPa | 450.17
330 K, 4996.1 kPa | 452.66
330 K, 5488.6 kPa | 455.01
330 K, 6010.6 kPa | 457.38
330 K, 6499.8 kPa | 459.5
330 K, 6985.1 kPa | 461.52
340 K, 3024.2 kPa | 417.87
340 K, 3507.8 kPa | 422.07
340 K, 4014 kPa | 426.05
340 K, 4501.8 kPa | 429.56
340 K, 5027.1 kPa | 433.06
340 K, 5516.7 kPa | 436.1
340 K, 5985 kPa | 438.83
340 K, 6494.7 kPa | 441.64
340 K, 6964.1 kPa | 444.1
350 K, 3541.2 kPa | 393.49
350 K, 4011.9 kPa | 399.51
350 K, 4505.9 kPa | 404.94
350 K, 5024.8 kPa | 409.94
350 K, 5521.6 kPa | 414.24
350 K, 6027.1 kPa | 418.22
350 K, 6491.4 kPa | 421.59
350 K, 6978.1 kPa | 424.88
360 K, 4043.5 kPa | 362.08
360 K, 4527.8 kPa | 372.52
360 K, 5043 kPa | 380.99
360 K, 5524.7 kPa | 387.51
360 K, 6048.5 kPa | 393.63
360 K, 6529.9 kPa | 398.56
360 K, 6953.8 kPa | 402.5
370 K, 779.8 kPa | 11.91
370 K, 1089.1 kPa | 17.21
370 K, 1515.9 kPa | 25.15
370 K, 2081.6 kPa | 37.08
370 K, 2783.7 kPa | 55.36
370 K, 4325.4 kPa | 287.46
370 K, 4521.7 kPa | 312.65
370 K, 4996.9 kPa | 336.94
370 K, 5527.4 kPa | 352.01
370 K, 5998 kPa | 361.65
370 K, 6504.8 kPa | 369.98
370 K, 7066.4 kPa | 377.66
380 K, 813.8 kPa | 12.27
380 K, 1223.8 kPa | 19.12
380 K, 1564.3 kPa | 25.22
380 K, 2032 kPa | 34.39
380 K, 2630.4 kPa | 47.9
380 K, 3340.1 kPa | 67.96
380 K, 4059 kPa | 97.16
380 K, 4059.9 kPa | 97.18
380 K, 4060.6 kPa | 97.22
380 K, 4556.5 kPa | 131.82
380 K, 5335.4 kPa | 273.87
380 K, 5530.3 kPa | 291.64
380 K, 6044.5 kPa | 318.37
380 K, 6541.5 kPa | 333.99
380 K, 7012.1 kPa | 344.89

Liquid
Conditions | mass density [kg/m3] | vapor or sublimation pressure [kPa]
240 K | 570.28 | 147.9
250 K | 558.29 | 217.7
260 K | 545.77 | 310.3
270 K | 532.67 | 429.6
290 K | 504.75 | 768.6
300 K | 489.48 | 997.6
310 K | 472.96 | 1272.1
320 K | 455 | 1600.7
330 K | 434.9 | 1988.8
340 K | 411.92 | 2429.7
350 K | 384.39 | 2948
360 K | 347.97 | 3552.2

From the NIST ThermoML archive (doi:10.1021/je049672l)
